Activity calls are given as the source filed them.
Assays:
[1] = target: T1, Corticotropin-releasing factor receptor 2/Corticotropin-releasing factor-binding protein (Homo sapiens, UniProt P24387+Q13324); experiment: activators of CRF receptor 2 with binding protein – uHTS hits, confirmation (AID 602473); type: functional; details: read-out: EC50_Mean
T1 sequence (Q13324 whole entry): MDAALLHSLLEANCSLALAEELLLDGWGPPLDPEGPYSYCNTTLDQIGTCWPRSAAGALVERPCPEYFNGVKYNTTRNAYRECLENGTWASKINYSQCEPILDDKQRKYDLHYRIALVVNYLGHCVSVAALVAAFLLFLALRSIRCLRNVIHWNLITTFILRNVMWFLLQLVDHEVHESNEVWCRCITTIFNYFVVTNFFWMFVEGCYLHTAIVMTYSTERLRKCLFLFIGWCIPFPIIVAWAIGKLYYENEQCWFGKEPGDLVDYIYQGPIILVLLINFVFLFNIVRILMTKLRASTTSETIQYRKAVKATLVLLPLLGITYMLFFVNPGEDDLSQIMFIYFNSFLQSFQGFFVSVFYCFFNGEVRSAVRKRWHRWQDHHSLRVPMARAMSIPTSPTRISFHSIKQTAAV
T1 sequence (P24387 whole entry): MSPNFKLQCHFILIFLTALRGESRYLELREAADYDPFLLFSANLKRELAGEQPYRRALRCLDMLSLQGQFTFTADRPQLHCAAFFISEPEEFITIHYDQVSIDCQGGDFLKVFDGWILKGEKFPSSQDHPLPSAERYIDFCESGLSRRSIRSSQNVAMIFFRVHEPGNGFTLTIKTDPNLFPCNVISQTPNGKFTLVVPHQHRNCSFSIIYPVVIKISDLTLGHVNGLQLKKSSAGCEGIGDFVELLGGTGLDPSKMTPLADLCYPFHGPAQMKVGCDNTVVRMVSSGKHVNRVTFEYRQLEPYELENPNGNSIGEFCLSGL

[2] = target: G-protein coupled receptor 55 (Homo sapiens, UniProt Q9Y2T6); experiment: inhibition of LPI-stimulated GPR55 beta-arrestin translocation – imaging, U2OS, beta-arrestin-GFP, LPI agonist, primary screen (AID 2013); type: functional;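 note: antagonist potency measured as reduced agonist-driven arrestin aggregation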
[3] = target: T1, Corticotropin-releasing factor receptor 2/Corticotropin-releasing factor-binding protein; experiment: Dose Response confirmation of uHTS hits for small molecule antagonists of the CRF-binding protein and CRF-R2 receptor complex.; type: functional; details: read-out: IC50_Mean
Fatty acid synthase [4] = target: T2, Fatty acid synthase (Homo sapiens, UniProt P49327); experiment: inhibition of human FAS-TE enzyme activity – biochemical, kinetic fluorescence intensity, dose response (AID 624326); type: functional;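 note: rate of fluorescence rise from hydrolysis of a fluorogenic O-methyl fluorescein ester substrate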
Fatty acid synthase [5] = target: T2, Fatty acid synthase; experiment: inhibition of human FAS-TE enzyme activity – biochemical, endpoint fluorescence intensity, uHTS hits, dose response (AID 624327); type: functional;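 note: fluorescence from hydrolysis of an O-methyl fluorescein acyl ester substrate by the enzyme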
[6] = blockers of CRF-binding protein–CRF-R2 complex – cell-based, uHTS hits, 384-well, dose response (AID 651639); type: functional, Homo sapiens; details: read-out: IC50_Mean
HEK293 = experiment: EBV LMP1 TES2 canonical NF-kB signalling blockers – cell-based, HEK293, luciferase, cherry-pick, dose response (AID 588343); type: functional; details: Homo sapiens
[7] = target: Dual specificity tyrosine-phosphorylation-regulated kinase 1A (Rattus norvegicus, UniProt Q63470); type: biochemical, Homo sapiens
[8] = target: T3, Sentrin-specific protease 1 (Homo sapiens, UniProt Q9P0U3); experiment: Dose response confirmation of small molecule inhibitors of the catalytic domain of the SUMO protease, SENP1 in a FRET assay.; type: functional; details: read-out: IC50_Mean
T3 sequence (Q9P0U3 whole entry): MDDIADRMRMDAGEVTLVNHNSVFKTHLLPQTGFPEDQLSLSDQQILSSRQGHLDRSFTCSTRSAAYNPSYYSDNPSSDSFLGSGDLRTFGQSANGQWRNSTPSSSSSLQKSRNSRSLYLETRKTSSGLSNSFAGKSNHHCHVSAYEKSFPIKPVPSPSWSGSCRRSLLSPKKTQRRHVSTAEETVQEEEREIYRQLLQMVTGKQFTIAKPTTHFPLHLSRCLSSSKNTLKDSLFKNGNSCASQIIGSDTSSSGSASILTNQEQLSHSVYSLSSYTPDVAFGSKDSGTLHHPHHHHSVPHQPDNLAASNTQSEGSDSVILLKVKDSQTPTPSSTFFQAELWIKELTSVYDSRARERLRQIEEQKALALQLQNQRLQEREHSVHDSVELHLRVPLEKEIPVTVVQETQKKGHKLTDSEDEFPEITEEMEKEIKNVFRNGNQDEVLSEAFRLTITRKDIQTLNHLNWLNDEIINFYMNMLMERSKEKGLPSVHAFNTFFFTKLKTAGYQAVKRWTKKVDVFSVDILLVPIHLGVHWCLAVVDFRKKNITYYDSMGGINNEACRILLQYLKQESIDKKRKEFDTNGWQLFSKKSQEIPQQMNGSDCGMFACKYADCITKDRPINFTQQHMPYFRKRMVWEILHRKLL

[9] = target: T3, Sentrin-specific protease 1; experiment: SENP1 catalytic domain blockers, concentration series – biochemical, kinetic FRET, dose response (AID 651697); type: functional; details: read-out: IC50_Mean

T2 sequence (P49327 whole entry): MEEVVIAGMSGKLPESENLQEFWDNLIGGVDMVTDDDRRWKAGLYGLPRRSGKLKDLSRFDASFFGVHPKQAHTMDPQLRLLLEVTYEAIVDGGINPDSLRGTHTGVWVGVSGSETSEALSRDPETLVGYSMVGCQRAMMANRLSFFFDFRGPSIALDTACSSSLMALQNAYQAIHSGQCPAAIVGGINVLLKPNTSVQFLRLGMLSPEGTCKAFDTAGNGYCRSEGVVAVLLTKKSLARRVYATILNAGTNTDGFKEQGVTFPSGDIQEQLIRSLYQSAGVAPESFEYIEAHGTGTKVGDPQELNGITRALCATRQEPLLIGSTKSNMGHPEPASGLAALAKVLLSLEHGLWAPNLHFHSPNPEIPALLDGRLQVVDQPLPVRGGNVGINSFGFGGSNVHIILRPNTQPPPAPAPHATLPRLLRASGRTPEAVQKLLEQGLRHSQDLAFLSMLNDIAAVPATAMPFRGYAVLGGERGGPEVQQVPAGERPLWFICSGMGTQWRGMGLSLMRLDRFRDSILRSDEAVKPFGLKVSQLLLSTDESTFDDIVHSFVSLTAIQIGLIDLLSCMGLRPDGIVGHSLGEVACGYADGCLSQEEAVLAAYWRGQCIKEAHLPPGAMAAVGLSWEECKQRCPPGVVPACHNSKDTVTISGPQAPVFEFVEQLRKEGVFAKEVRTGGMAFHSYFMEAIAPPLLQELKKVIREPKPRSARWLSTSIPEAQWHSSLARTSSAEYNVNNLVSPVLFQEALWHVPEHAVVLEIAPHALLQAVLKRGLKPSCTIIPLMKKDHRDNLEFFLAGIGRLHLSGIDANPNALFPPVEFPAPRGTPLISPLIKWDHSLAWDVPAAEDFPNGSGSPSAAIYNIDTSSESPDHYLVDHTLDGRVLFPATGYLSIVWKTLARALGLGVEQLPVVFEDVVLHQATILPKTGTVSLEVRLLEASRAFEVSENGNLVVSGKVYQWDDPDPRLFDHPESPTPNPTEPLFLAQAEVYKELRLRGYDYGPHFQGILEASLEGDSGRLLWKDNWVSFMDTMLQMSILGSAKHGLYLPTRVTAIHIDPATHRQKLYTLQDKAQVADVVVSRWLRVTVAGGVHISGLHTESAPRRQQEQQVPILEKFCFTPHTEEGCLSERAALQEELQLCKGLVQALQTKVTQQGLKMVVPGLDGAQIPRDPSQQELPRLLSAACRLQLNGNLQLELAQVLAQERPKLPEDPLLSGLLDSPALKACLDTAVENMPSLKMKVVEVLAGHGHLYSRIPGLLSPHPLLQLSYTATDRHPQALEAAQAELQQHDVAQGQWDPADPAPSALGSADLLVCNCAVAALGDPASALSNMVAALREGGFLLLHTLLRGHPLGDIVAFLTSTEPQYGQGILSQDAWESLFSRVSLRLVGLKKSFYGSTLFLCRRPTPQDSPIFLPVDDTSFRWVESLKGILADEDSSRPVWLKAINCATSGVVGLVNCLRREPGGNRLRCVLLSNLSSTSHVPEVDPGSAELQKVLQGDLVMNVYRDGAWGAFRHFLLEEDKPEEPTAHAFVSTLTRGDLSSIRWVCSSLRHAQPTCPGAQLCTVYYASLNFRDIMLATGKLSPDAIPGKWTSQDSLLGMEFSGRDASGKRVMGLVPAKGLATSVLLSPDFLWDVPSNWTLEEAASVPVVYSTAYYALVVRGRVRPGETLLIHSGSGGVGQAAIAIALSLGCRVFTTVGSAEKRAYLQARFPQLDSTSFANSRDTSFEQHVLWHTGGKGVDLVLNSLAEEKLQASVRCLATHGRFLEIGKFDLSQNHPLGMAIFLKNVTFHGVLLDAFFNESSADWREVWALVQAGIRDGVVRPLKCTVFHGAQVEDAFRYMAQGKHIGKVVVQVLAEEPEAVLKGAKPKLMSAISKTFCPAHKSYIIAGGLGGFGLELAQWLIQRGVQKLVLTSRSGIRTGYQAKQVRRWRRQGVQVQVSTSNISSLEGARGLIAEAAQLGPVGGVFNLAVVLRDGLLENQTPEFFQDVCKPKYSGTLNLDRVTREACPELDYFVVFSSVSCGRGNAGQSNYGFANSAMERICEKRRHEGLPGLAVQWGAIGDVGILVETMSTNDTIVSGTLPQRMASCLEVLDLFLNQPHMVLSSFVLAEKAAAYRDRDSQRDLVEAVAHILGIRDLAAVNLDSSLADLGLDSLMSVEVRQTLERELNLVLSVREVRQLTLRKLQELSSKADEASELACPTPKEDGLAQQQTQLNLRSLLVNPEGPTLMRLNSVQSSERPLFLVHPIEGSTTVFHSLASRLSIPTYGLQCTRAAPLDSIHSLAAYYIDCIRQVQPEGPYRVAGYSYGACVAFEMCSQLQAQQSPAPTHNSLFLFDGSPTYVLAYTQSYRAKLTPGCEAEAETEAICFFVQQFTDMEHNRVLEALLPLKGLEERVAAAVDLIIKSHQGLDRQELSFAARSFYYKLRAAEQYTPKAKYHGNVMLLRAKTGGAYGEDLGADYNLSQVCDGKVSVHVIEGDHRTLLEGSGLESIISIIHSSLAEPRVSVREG
Chain of G-protein coupled receptor 55 (Q9Y2T6 whole entry): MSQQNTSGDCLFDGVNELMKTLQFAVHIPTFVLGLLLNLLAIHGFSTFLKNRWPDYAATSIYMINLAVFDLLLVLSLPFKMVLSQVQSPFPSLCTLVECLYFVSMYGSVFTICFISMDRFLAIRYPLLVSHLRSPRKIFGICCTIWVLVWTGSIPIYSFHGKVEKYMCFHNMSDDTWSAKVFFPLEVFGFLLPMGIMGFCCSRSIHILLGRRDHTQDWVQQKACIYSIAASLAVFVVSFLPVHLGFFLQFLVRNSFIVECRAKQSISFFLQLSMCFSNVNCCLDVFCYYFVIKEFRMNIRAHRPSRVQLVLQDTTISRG

For `O=C(O)c1ccc(Cl)c(NC(=S)NC(=O)c2cccc(COc3ccccc3)c2)c1`, the EC50 [1] was > 53 µM (inactive), the IC50 [2] was 2.3 µM (active) and the IC50 [3] was < 0.368 µM (active). The IC50 (Fatty acid synthase [4]) was 4.47 µM (active), the IC50 (Fatty acid synthase [5]) was 6.11 µM (active) and the IC50 [6] was > 20 µM (inactive).

For `CC(=O)Nc1cccc(-c2cnc(N)c(C(=O)c3cccnc3)n2)c1`, the AC50 (HEK293) was 21.4 µM (active) and the AC50 [7] was 0.193 µM (active).

In the case of `COc1ccc(NN=C2C(=O)NC(=S)NC2=O)cc1`, the IC50 [8] is reported as 16.6 µM (active) and the IC50 [9] is reported as 29.1 µM (inactive).

With `CCCCOc1ccc(OC(=O)Nc2cc(Cl)ccc2OC)cc1` the EC50 [1] was > 53 µM (inactive), the IC50 [3] was < 0.368 µM (active) and the IC50 [6] was > 20 µM (inactive).

Reference: ChEMBL document CHEMBL1201862, “PubChem BioAssay data set” (2004)
